Values of other authors in US12011496B2, “Topical macqui berry formulation” (Tracie Martyn International, Inc., priority 2005, dated 2024).

How the values were obtained:
[1] = animal studies
[2] = using only natural ingredients (botanicals, antioxidants, coffe oil and microfine zinc oxide)
[3] = antioxidant properties

Structure (SMILES): NCCC(=O)N[C@@H](Cc1cnc[nH]1)C(=O)O [Carnosine, β-alanyl-L-histidine]
- safety at dosages above 500 mg/kg body weight [1]: safe

Structure (SMILES): C=CCc1cc(OC)c2c(c1)OCO2 [myristicin, 3-methoxy,4,5-methylendioxy-allylbenzene]
- oral psychotropic dose: 400 mg

Structure (SMILES): COc1ccc(C=CC(=O)OCCC(C)C)cc1 [isoamyl-p-methoxycinnamate]
- spf [2]: greater than 30

Structure (SMILES): O=C(/C=C/c1ccc(O)c(O)c1)O[C@H](Cc1ccc(O)c(O)c1)C(=O)O [Rosmarinic acid]
- IC50 [3]: 740 nM
